In patent US20240109865A1, “INDAZOLE COMPOUNDS AS KINASE INHIBITORS” (TYRA BIOSCIENCES, INC., priority 2020, published 2024):
Structures can show the parent of a compound that is named as a salt.

Tests used:
[1] = system: RT112/84 cells (FGFR3-fusion); assay: RT112/84 cancer cell line cell viability assay (CellTiter-Glo 2.0); type: cell-based; settings: Homo sapiens, 72 hours, Cell Titer Glo 2.0
Summary of the method: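 RT112/84, UM-UC-14 and KG-1 cells (10,000/well, RPMI1640 with 10% FBS) were treated with a 9-dose, 10-fold series starting at 30 μM, in triplicate, for 72 h at 37 °C. ATP was read by CellTiter-Glo 2.0 luminescence relative to DMSO controls, and IC50 was fitted with a 4-parameter sigmoidal model.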

[2] = system: UM-UC-14 cells (FGFR3(S249C)); assay: UM-UC-14 cancer cell line cell viability assay (CellTiter-Glo 2.0); type: cell-based; settings: UMUC14, 72 hours, Cell Titer Glo 2.0
Text: (§1) Experimental Purpose: To detect the change of intracellular ATP by Cell Titer-Glo® and to evaluate the inhibitory effect of the compounds on cancer cell lines by determining the in vitro IC50 value of the compounds.
(§2) Cell Titer-Glo® 2.0 Luminescent cell viability assay reagent was purchased from Promega (Madison, WI). RT112/84 and KG-1 cell lines were purchased from American Type Culture Collection (Manassas, VA). UM-UC-14 cell line was purchased from Sigma (St. Louis, MO). RT112/84, UM-UC-14, and KG-1 cells were cultured in RPMI1640 media supplemented with 10% fetal bovine serum. Cultures were maintained at 37° C. in a humidified atmosphere of 5% C02 and 95% air.
(§3) Cell Viability Assay Procedure: Cells were plated in 96-well clear bottom/white plates (Corning #3903) at 10,000 cells/well in 100 μl of media, incubated overnight. The next day, test compound DMSO stock solutions were made at 10 mM and 2 μM final concentration. Compounds were then added to cells in a 9-dose, 10-fold dilution series starting at 30 μM with an HP 300e Digital Dispenser (each dose was applied in triplicate). DMSO was backfilled to each well up to 301 nL total volume of test compound+DMSO, and a total of 301 nL DMSO was added to a control/no test compound well in triplicate. The cells in cell culture plates were incubated with the compounds at 37° C. and 5% C02 for 72 hours. Then 50 μl of Cell Titer Glo 2.0 reagent was added to each well of the cell culture plates. The contents were covered from light and mixed on an orbital shaker at room temperature for 10 min. Luminescence was recorded by a Synergy H1 Microplate Reader (Biotek, Winooski, VT). Cells were assessed as a percentage of DMSO only treated control cells. Curves were plotted and IC50 values were calculated using the GraphPad Prism 8 program based on a sigmoidal dose-response equation (4 parameter).

[3] = system: KG-1 cells (FGFR1-fusion); assay: KG-1 cancer cell line cell viability assay (CellTiter-Glo 2.0); type: cell-based; settings: Homo sapiens, 72 hours, Cell Titer Glo 2.0
Text: as §1, §2, §3

[4] = target: FGFR3-BAIAP2L1 Ba/F3 cells (Homo sapiens, UniProt P22607); assay: Ba/F3 cell viability assay (CellTiter-Glo 2.0), FGFR3-BAIAP2L1 Ba/F3; type: cell-based; settings: for Ba/F3 FGFR1/FGFR3 Selectivity: FGFR3 > FGFR1 selectivity ratio in Ba/F3 FGFR fusion cell based assays; for IC50: read-out: Ba/F3 Cells FGFR3 (IC50 nM), FGFR3-BAIAP2L1 Ba/F3 cells, 48 hours, Cell Titer Glo 2.0
Chain of FGFR3-BAIAP2L1 Ba/F3 cells (P22607 23-806 limits assumed, change not shown): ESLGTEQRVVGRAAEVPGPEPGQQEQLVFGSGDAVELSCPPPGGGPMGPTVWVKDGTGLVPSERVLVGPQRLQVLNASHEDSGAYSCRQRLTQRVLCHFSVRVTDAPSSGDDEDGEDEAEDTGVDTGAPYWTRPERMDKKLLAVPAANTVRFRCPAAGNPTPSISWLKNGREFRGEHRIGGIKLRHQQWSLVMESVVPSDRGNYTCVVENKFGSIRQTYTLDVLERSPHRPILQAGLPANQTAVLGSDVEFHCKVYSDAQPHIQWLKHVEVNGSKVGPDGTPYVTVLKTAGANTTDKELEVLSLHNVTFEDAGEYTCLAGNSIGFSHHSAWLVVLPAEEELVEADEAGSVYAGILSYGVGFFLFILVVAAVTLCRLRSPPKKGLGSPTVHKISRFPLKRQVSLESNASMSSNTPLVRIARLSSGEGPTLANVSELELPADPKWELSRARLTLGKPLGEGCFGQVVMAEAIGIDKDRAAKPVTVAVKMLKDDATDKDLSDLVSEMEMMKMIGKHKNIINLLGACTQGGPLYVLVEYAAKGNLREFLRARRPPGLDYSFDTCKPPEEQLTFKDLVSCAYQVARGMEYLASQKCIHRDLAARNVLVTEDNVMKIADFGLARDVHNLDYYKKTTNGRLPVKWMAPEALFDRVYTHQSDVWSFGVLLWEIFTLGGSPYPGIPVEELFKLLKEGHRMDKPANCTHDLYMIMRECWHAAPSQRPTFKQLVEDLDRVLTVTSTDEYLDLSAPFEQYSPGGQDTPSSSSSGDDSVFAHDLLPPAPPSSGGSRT
Summary of the method: (§4)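 IL3-independent Ba/F3 lines driven by FGFR1-BCR or FGFR3-BAIAP2L1 fusions, in RPMI1640/10% FBS. 9-dose 10-fold series from 30 μM, triplicate, 48 h at 37 °C; viability by CellTiter-Glo 2.0 ATP luminescence relative to DMSO control, IC50 from 4-parameter sigmoidal fit.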

FGFR3 (V555M) = FGFR3 (V555M) (Homo sapiens (Human), UniProt P22607, V555M); assay: Kinase assay, binding constants (Kd), kinase-tagged T7 phage, qPCR; settings: V555M mutant
Chain of FGFR3 (V555M) (P22607 23-806 V555M): as the sequence (P22607 23-806 limits assumed, change not shown) above, with V533M counted along it
Summary of the method: (§5)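 Competition binding: kinase-tagged T7 phage lysates mixed with immobilized biotinylated ligand on streptavidin beads plus compound (11-point 3-fold dilution series, 0.9% DMSO final). Bound kinase eluted with free ligand and quantified by qPCR. Kd from Hill equation fit, slope fixed at −1.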

FGFR3 = FGFR3 (Homo sapiens (Human), UniProt P22607); assay: as above
Chain of FGFR3 (P22607 23-806): as the sequence (P22607 23-806 limits assumed, change not shown) above
Summary of the method: as §5

FGFR2 = FGFR2 (Homo sapiens (Human), UniProt P21802); assay: as above
Chain of FGFR2 (P21802 22-821): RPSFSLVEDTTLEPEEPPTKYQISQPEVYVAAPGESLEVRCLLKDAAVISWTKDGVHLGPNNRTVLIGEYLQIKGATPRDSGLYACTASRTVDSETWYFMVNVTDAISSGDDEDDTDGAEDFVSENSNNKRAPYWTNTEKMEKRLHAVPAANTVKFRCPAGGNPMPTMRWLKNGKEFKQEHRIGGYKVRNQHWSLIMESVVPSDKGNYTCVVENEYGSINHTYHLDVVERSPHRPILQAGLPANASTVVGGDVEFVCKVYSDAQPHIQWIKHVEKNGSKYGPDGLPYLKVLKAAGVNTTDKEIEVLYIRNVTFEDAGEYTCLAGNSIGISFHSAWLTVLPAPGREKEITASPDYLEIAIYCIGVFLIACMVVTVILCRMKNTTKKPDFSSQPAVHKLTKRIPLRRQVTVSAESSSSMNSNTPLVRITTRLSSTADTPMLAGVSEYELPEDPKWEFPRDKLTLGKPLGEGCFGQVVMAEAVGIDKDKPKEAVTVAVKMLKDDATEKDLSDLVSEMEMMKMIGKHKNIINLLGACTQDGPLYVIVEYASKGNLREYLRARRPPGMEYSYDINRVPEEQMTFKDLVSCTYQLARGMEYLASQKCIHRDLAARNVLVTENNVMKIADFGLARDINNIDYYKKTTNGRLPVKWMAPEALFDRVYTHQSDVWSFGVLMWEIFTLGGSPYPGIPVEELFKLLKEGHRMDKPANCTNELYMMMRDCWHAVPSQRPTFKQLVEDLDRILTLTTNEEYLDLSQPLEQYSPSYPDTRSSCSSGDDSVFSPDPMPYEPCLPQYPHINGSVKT
Summary of the method: as §5

FGFR1 = FGFR1 (Homo sapiens (Human), UniProt P11362); assay: as above
Chain of FGFR1 (P11362 22-822): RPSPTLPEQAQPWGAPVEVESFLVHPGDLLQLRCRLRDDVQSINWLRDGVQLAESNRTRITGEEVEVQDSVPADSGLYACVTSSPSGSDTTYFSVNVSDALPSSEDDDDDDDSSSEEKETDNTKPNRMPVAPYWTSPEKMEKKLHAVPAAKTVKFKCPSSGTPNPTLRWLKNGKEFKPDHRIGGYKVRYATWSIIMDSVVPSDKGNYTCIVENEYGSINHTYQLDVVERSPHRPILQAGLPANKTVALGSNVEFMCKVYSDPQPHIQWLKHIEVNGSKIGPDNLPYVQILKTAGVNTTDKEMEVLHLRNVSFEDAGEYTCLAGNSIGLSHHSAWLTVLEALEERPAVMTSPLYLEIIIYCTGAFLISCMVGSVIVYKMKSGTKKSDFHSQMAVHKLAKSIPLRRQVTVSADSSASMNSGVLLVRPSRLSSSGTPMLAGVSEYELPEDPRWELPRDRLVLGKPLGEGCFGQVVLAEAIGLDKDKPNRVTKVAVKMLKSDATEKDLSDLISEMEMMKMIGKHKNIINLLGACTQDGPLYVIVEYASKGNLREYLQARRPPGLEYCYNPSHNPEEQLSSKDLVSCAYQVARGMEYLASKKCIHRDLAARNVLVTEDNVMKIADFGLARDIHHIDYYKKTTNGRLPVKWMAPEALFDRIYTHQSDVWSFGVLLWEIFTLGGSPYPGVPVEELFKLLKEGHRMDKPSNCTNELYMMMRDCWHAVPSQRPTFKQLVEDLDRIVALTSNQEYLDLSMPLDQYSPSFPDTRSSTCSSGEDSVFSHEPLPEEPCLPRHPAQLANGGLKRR
Summary of the method: as §5

FGFR4 = FGFR4 (Homo sapiens (Human), UniProt P22455); assay: as above
Chain of FGFR4 (P22455 22-802): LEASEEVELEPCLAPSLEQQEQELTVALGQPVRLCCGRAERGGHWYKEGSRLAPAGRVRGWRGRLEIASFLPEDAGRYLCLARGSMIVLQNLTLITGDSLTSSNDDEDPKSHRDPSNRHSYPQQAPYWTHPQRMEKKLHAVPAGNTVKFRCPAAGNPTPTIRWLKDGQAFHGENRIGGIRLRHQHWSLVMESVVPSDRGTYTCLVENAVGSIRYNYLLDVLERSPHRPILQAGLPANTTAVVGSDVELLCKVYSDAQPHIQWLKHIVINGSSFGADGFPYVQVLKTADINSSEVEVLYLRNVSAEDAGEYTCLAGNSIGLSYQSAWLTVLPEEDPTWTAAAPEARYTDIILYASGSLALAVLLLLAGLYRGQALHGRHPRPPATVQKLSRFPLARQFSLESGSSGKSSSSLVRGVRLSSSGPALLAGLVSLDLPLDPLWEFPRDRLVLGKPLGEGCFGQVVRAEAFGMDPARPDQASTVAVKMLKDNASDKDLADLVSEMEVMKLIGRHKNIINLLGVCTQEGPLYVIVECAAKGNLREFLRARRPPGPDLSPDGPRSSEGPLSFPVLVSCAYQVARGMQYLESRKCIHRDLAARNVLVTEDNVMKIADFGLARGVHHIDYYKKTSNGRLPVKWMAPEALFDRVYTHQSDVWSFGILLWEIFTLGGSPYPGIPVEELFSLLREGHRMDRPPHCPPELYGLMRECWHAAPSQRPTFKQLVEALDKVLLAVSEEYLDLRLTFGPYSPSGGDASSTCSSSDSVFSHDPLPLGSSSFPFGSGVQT
Summary of the method: as §5

FGFR1-BCR Ba/F3 cells = FGFR1-BCR Ba/F3 cells (Homo sapiens, UniProt P11362); assay: Ba/F3 cell viability assay (CellTiter-Glo 2.0), FGFR1-BCR Ba/F3; type: cell-based; settings: read-out: Ba/F3 Cells FGFR1 (IC50 nM), 48 hours, Cell Titer Glo 2.0
Chain of FGFR1-BCR Ba/F3 cells (P11362 22-822 limits assumed, change not shown): as the sequence (P11362 22-822) above
Summary of the method: as §4

Row | SMILES | IC50 [1] [nM] | IC50 [2] [nM] | IC50 [3] [nM] | Ba/F3 FGFR1/FGFR3 Selectivity [4] | IC50 [4] [nM] | Kd (FGFR3 (V555M)) [nM] | Kd (FGFR3) [nM] | Kd (FGFR2) [nM] | Kd (FGFR1) [nM] | Kd (FGFR4) [nM] | IC50 (FGFR1-BCR Ba/F3 cells) [nM]
1 | C[C@@H](Oc1ccc2[nH]nc(-c3ccc(N4CCN(C(=O)N5CCOCC5)CC4)nc3)c2c1)c1c(Cl)cncc1Cl [Example 3, [4-[5-[5-[(1R)-1-(3,5-dichloro-4-pyridyl)ethoxy]-1H-indazol-3-yl]-2-pyridyl]piperazin-1-yl]-morpholino-methanone] | 1 to 20 | 1 to 20 | 20 to 100 | 18 | 1 to 20 | 1 to 20 | 1 to 20 | 1 to 20 | 1 to 20 | 1 to 20 | 20 to 100
2 | C[C@@H](Oc1ccc2[nH]nc(-c3cnc(N4CCCN(C5COC5)CC4)nc3)c2c1)c1c(Cl)cncc1Cl [Example 60, 5-[(1R)-1-(3,5-Dichloro-4-pyridyl)ethoxy]-3-[2-[4-(oxetan-3-yl)-1,4-diazepan-1-yl]pyrimidin-5-yl]-1H-indazole] | 20 to 100 | 20 to 100 | 100 to 300 | 13 | 1 to 20 | 1 to 20 | 1 to 20 | 1 to 20 | 1 to 20 | 1 to 20 | 100 to 300
3 | C[C@@H](Oc1ccc2[nH]nc(-c3cnc(N4CCN(C(=O)N5CCN(C)CC5)CC4)c(F)c3)c2c1)c1c(Cl)cncc1Cl [Example 13, [4-[5-[5-[(1R)-1-(3,5-Dichloro-4-pyridyl)ethoxy]-1H-indazol-3-yl]-3-fluoro-2-pyridyl]piperazin-1-yl]-(4-methylpiperazin-1-yl)methanone] | 1 to 20 | 20 to 100 | 20 to 100 | 11 | 20 to 100 | 1 to 20 | 1 to 20 | 1 to 20 | 1 to 20 | 1 to 20 | 100 to 300
4 | C[C@@H](Oc1ccc2[nH]nc(-c3ccc(N4CCC5(CCCO5)CC4)nc3)c2c1)c1c(Cl)cncc1Cl [Example 26, 8-[5-[5-[(1R)-1-(3,5-dichloro-4-pyridyl)ethoxy]-1H-indazol-3-yl]-2-pyridyl]-1-oxa-8-azaspiro[4.5]decane] | 20 to 100 | 20 to 100 | > 300 | 28 | 20 to 100 | 1 to 20 | 1 to 20 | 20 to 100 | 20 to 100 | 1 to 20 | > 300
5 | C[C@@H](Oc1ccc2[nH]nc(-c3ccc(N4CCN(C(N)=O)C5(CC5)C4)nc3)c2c1)c1c(Cl)cncc1Cl [Example 24, 7-[5-[5-[(1R)-1-(3,5-dichloro-4-pyridyl)ethoxy]-1H-indazol-3-yl]-2-pyridyl]-4,7-diazaspiro[2.5]octane-4-carboxamide] | 1 to 20 | 1 to 20 | 20 to 100 | 18 | 1 to 20 | 1 to 20 | 1 to 20 | 1 to 20 | 1 to 20 | 1 to 20 | 20 to 100
6 | C[C@@H](Oc1ccc2[nH]nc(-c3cnc(N4CCC5(CCCN5C)CC4)nc3)c2c1)c1c(Cl)cncc1Cl [Example 52, 8-[5-[5-[(1R)-1-(3,5-dichloro-4-pyridyl)ethoxy]-1H-indazol-3-yl]pyrimidin-2-yl]-1-methyl-1,8-diazaspiro[4.5]decane] | 20 to 100 | 20 to 100 | 20 to 100 | 7 | 20 to 100 | 1 to 20 | 1 to 20 | 20 to 100 | 1 to 20 | 1 to 20 | 100 to 300
7 | C[C@@H](Oc1ccc2[nH]nc(-c3ccc(N4CCC5(CCOC5)CC4)nc3)c2c1)c1c(Cl)cncc1Cl [Example 28, 8-[5-[5-[(1R)-1-(3,5-dichloro-4-pyridyl)ethoxy]-1H-indazol-3-yl]-2-pyridyl]-2-oxa-8-azaspiro[4.5]decane] | 1 to 20 | 1 to 20 | 100 to 300 | 22 | 1 to 20 | 1 to 20 | 1 to 20 | 20 to 100 | 20 to 100 | 1 to 20 | > 300
8 | C[C@@H](Oc1ccc2[nH]nc(-c3ccc(N4CCC5(CCNC5=O)CC4)nc3)c2c1)c1c(Cl)cncc1Cl [Example 27, 8-[5-[5-[(1R)-1-(3,5-dichloro-4-pyridyl)ethoxy]-1H-indazol-3-yl]-2-pyridyl]-2,8-diazaspiro[4.5]decan-1-one] | 1 to 20 | 1 to 20 | 100 to 300 | 24 | 1 to 20 | 1 to 20 | 1 to 20 | 1 to 20 | 20 to 100 | 1 to 20 | 100 to 300
9 | CCOC(=O)N1CC2(C1)CN(c1ccc(-c3n[nH]c4ccc(O[C@H](C)c5c(Cl)cncc5Cl)cc34)cn1)C2 [Example 121, ethyl 6-[5-[5-[(1R)-1-(3,5-dichloro-4-pyridyl)ethoxy]-1H-indazol-3-yl]-2-pyridyl]-2,6-diazaspiro[3.3]heptane-2-carboxylate] | 1 to 20 |  | 100 to 300 | 14 | 1 to 20 | 1 to 20 | 1 to 20 | 20 to 100 | 20 to 100 | 1 to 20 | 100 to 300
10 | C[C@@H](Oc1ccc2[nH]nc(-c3ccc(N4CC5(CCS(=O)(=O)C5)C4)nc3)c2c1)c1c(Cl)cncc1Cl [Example 117, 2-[5-[5-[(1R)-1-(3,5-dichloro-4-pyridyl)ethoxy]-1H-indazol-3-yl]-2-pyridyl]-6λ^6-thia-2-azaspiro[3.4]octane 6,6-dioxide] | 1 to 20 |  | 20 to 100 | 15 | 1 to 20 | 1 to 20 | 1 to 20 | 1 to 20 | 1 to 20 | 1 to 20 | 20 to 100
11 | C[C@@H](Oc1ccc2[nH]nc(-c3cnc(N4CC5(CCN(S(C)(=O)=O)C5)C4)nc3)c2c1)c1c(Cl)cncc1Cl [Example 157, 5-[(1R)-1-(3,5-dichloro-4-pyridyl)ethoxy]-3-[2-(7-methylsulfonyl-2,7-diazaspiro[3.4]octan-2-yl)pyrimidin-5-yl]-1H-indazole] | 20 to 100 | 100 to 300 |  | 7 | 1 to 20 | 1 to 20 | 1 to 20 | 20 to 100 | 20 to 100 | 1 to 20 | 100 to 300
12 | C[C@@H](Oc1ccc2[nH]nc(-c3ccc(N4CCNCC4)nc3)c2c1)c1c(Cl)cncc1Cl [Example 2, (R)-5-(1-(3,5-Dichloropyridin-4-yl)ethoxy)-3-(6-(piperazin-1-yl)pyridin-3-yl)-1H-indazole dihydrochloride] |  | 1 to 20 |  | 15 | 1 to 20 | 1 to 20 | 1 to 20 | 1 to 20 | 1 to 20 | 1 to 20 | 100 to 300
